The values below are quoted from earlier work in patent US20120275998A1, “BIODEGRADABLE STENT COMPRISING AN ACID SCAVENGING AGENT” (priority 2009, published 2012).

Turning to `OCCN(CCO)c1nc(N2CCCCC2)c2nc(N(CCO)CCO)nc(N3CCCCC3)c2n1` [Dipyridamole, 2,6-bis(dithioethanolamino)-4,8-dipiperidinopyrimido(5,4-d)pyrimidine], the “Soluble (solvents)” value (solvents in which the substance is soluble) is listed as “Ethanol, dimethyl sulfoxide”. Besides, where the note is “water”, the Water solubility entry is recorded as “slightly soluble in water”.
